{"source": "paper PMC4139099", "about": "(Biochimica et biophysica acta, 2013)", "key": {"[1]": {"test_system": "mice", "test": "Toxicity and behavior in mice", "assay_type": "in vivo", "conditions": "i.p. 40 μg/g"}, "[2]": {"biological_target": "proteinase K (Parengyodontium album, UniProt P06873)", "sequence (P06873 106-384)": "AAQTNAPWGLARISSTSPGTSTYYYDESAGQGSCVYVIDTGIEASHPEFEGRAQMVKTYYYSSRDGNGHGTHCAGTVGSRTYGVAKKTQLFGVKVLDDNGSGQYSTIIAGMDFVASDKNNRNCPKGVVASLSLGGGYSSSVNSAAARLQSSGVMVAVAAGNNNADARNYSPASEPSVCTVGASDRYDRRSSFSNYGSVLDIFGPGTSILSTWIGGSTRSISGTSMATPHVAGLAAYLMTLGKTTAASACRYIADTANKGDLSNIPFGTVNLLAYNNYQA", "test": "Proteolytic and thermal stability against proteinase K", "assay_type": "in vitro ADME", "conditions": "proteinase K from Tritirachium album; 50 °C, up to 48 h"}, "[3]": {"biological_target": "T1, trypsin (Sus scrofa, UniProt P00761)", "T1 sequence (P00761 9-231)": "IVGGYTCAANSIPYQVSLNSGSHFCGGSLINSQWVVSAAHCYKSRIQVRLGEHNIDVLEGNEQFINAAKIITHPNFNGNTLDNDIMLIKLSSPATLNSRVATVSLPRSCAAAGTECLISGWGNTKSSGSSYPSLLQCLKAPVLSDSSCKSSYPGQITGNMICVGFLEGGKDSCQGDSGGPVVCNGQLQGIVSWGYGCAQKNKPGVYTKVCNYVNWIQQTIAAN", "test": "Trypsin inhibitory assay", "assay_type": "biochemical", "conditions": "up to the concentration of 100 μg/mL"}, "[4]": {"biological_target": "T2, chymotrypsin (Bos taurus, UniProt P00766)", "test": "Chymotrypsin inhibitory assay", "assay_type": "biochemical", "conditions": "up to the concentration of 100 μg/mL"}, "[5]": {"test_system": "chicks", "test": "Toxicity and behavior in chicks", "assay_type": "in vivo", "conditions": "i.c.v. 60 μg/g"}, "[6]": {"biological_target": "T3, thermolysin (Bacillus thermoproteolyticus, UniProt P00800)", "T3 sequence (P00800 233-548)": "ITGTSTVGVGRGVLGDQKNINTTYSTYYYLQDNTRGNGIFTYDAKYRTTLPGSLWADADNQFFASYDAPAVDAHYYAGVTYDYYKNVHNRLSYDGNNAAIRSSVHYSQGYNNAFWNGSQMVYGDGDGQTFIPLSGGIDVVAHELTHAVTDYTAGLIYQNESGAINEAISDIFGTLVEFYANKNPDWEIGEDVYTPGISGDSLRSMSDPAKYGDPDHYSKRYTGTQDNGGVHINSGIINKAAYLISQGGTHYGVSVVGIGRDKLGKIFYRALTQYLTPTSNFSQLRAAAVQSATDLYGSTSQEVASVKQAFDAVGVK", "test": "Proteolytic and thermal stability against thermolysin", "assay_type": "in vitro ADME", "conditions": "thermolysin from Bacillus thermoproteolyticus Rokko; 65 °C, up to 12 h"}, "[7]": {"test": "Solubility in water or low pH buffers", "conditions": "pure water or low pH buffers"}, "[8]": {"test_system": "murine cerebrocortical neuron cells", "test": "Veratridine-induced neuronal Ca2+ influx", "assay_type": "cell-based", "conditions": "data not shown"}, "[9]": {"biological_target": "T1, trypsin", "conditions": "cited from earlier work"}, "[10]": {"biological_target": "pepsin (Sus scrofa, UniProt P00791)", "sequence (P00791 60-385)": "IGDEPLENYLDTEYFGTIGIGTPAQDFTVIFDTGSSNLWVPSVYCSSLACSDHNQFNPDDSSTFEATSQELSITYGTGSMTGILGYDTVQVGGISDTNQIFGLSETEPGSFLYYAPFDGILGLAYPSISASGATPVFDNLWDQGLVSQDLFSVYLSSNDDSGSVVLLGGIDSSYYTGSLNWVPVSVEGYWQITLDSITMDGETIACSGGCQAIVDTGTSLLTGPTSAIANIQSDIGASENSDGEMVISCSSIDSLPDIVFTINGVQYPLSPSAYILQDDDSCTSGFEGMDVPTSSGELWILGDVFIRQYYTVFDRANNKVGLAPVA", "conditions": "cited from earlier work"}, "[11]": {"biological_target": "T2, chymotrypsin", "conditions": "cited from earlier work"}}, "note": "Where no end group is shown, it is not given here.", "data": [{"substance": "asteropsin A [ASPA]", "values": [{"measurement": "toxic effects or behavior changes in mice", "setting": "[1]", "result": "no toxic effects or behavior changes"}, {"measurement": "proteolytic and thermal stability against proteinase K", "setting": "[2]", "result": "exceptional proteolytic and thermal stability"}, {"measurement": "effect in trypsin inhibitory assay", "setting": "[3]", "result": "no effects"}, {"measurement": "effect in chymotrypsin inhibitory assay", "setting": "[4]", "result": "no effects"}, {"measurement": "toxic effects or behavior changes in chicks", "setting": "[5]", "result": "no toxic effects or behavior changes"}, {"measurement": "proteolytic and thermal stability against thermolysin", "setting": "[6]", "result": "exceptional proteolytic and thermal stability"}]}, {"substance": "asteropsin C [ASPC]", "values": [{"measurement": "toxic effects or behavior changes in mice", "setting": "[1]", "result": "no toxic effects or behavior changes"}, {"measurement": "proteolytic and thermal stability against proteinase K", "setting": "[2]", "result": "exceptional proteolytic and thermal stability"}, {"measurement": "effect in trypsin inhibitory assay", "setting": "[3]", "result": "no effects"}, {"measurement": "solubility", "setting": "[7]", "result": "virtually insoluble"}, {"measurement": "effect on neuronal Ca2+ influx", "setting": "[8]", "result": "no effect"}, {"measurement": "effect in chymotrypsin inhibitory assay", "setting": "[4]", "result": "no effects"}, {"measurement": "toxic effects or behavior changes in chicks", "setting": "[5]", "result": "no toxic effects or behavior changes"}]}, {"substance": "kalata B1 (GLPVCGETCVGGTCNTPGCTCSWPVCTRN; not fully specified; ends and bridges not checked; UniProt P56254 89-117, looked up)", "values": [{"measurement": "stability towards trypsin", "setting": "[9]", "result": "exhibits stability"}, {"measurement": "stability towards pepsin", "setting": "[10]", "result": "exhibits stability"}, {"measurement": "stability towards chymotrypsin", "setting": "[11]", "result": "exhibits stability"}]}, {"substance": "ω-conotoxin MVIIA [ziconotide]", "values": [{"measurement": "stability to trypsin", "setting": "[9]", "result": "unstable"}]}]}
